In article PMC10541198, “Specific quinone reductase 2 inhibitors reduce metabolic burden and reverse Alzheimer’s disease phenotype in mice” (The Journal of Clinical Investigation, 2023):
Several values for one entry are separate records, joined by “and”; a condition that tells them apart may be missing. Equal entries are not always repeated.

Test system: 5xFAD mice
Test: Novel object recognition in 5xFAD mice
Type: in vivo, mouse
Design: key: (novel − familiar)/(novel + familiar) exploration time, −1 to 1
Settings: 5xFAD 1 month
Description: We next aimed to test the effect of QR2 inhibition in AD model mice using YB-537, taking advantage of its extremely high specificity, solubility, and lack of toxicity. First, we determined YB-537 pharmacokinetics (PK) and oral bioavailability and assessed any acute observable toxicity in mice. […] We therefore opted to chronically deliver YB-537 to AD-model mice via their drinking water, so they may freely ingest the inhibitor at 50 mg/kg, with minimal intervention or trauma, for 1 month. We chose 9-month-old 5xFAD ([27]) male and female mice in double-blind experiments, so that well-progressed symptoms and pathologies would be present, to mimic clinically relevant cases in human patients ([35]), as has been previously described in this mouse model. Other than an improvement in nest quality ([36]) over time seen in animals receiving YB-537 (starting at age 8 months and ending at age 9 months), no changes to general physical parameters or wellbeing were observed over the 1 month of YB-537 ingestion (Supplemental Figure 6, A–J). […] Since learning in this paradigm was slow, and performance was poor even following 6 days of training (using 4 learning trials a day), a test day was not carried out and instead only the learning rate was measured. […]
Following a 10 minute exploration of a 50 × 50 cm open-field arena, mice were returned to the arena the next day, which contained 2 identical objects. […] Mouse movement, exploration, and nuzzling was automatically recorded with an Ikegami ICD-49E camera with EthoVision 14 (Noldus Information Technology). Discrimination of the novel object was assessed by calculating (time exploring novel object – time exploring familiar object)/(time exploring novel object + time exploring familiar object). […]
Mice were individually placed within a cage and taken to a dimly lit room containing an open field arena 50 x 50 cm in size. […] Th e fl oor was ei ther whit e or black,dependingon mous e coat c ol or, to allow automatic analysisof movement par am et ers, apar t from rearing which was manually counted. […]

## Cc1ccc(-c2cn3cccc(C)c3n2)cc1S(=O)(=O)N1CCNCC1 [YB-537]
Both sexes
  novel object discrimination (individual mice): -0.101 and 0.504 and 0.236 and 0.249 and -0.330 and 0.874 and 0.145 and -0.163 and -0.038 and -0.010 and 0.265 and -0.414 and 0.439 and 0.710 and 0.259 and 0.231
females
  novel object discrimination (individual mice): 0.504 and 0.236 and 0.439 and 0.710 and 0.259 and 0.231 and -0.101
males
  novel object discrimination (individual mice): -0.038 and -0.010 and 0.265 and -0.414 and 0.249 and -0.330 and 0.874 and 0.145 and -0.163
